According to patent publication US20090175795A1, “CHIMERIC THERAPEUTIC AGENTS” (Amprotein Corporation, priority 2005, published 2009):

Tests used:
blood glucose [1] = assay: GTT assay in rabbits; format: in vivo, rabbit; conditions: small numbers
Procedure: (§1) Similarly GTT assays were also conducted in rats and rabbits in small numbers. All the results support the inhibition of GLP1-Fc-leptin on blood glucose level.

blood glucose [2] = assay: intraperitoneal glucose tolerance test (ip GTT) in mice; format: in vivo, mouse; set-up: Blood glucose (X ± SD): unit not given here; conditions: for effect on blood glucose levels in ip GTT: P<0.05
Procedure: (§2) First, intraperitoneal glucose tolerance test (ip GTT) was conducted to test GLP -Fc-leptin's action on glucose-dependent insulin secretion. Briefly, mouse blood glucose was measured using one-touch blood glucose strips. A blood sample was obtained from a mouse through tail bleeding. Then, 0.04, 0.1, or 0.2 mg of GLP1-Fc-leptin or control protein human IgG1 Fc fragment were injected ip. Immediately after the injections, 0.2 ml of saturated glucose water solution was injected ip into the mouse. One and two hours later, another blood sample was collected in the same manner for glucose measurement.

[3] = effect on body weight, 7-day ip injection; format: in vivo, mouse; conditions: for Body weight (X ± SD): n = 5, in g (unit assumed)
Procedure: The effects of GLP1-Fc-leptin on body weight were studied. Mice were injected with 0.1 mg of GLP1-Fc-leptin or human IgG1 Fc fragment in the same manner described above daily for seven days. At days 1 and 7, the body weight of each […] was measured and recorded. […] The body weight was measured on days 1, 4, and 7. Effects of leptin on body weight were studied in the same manner described above. More specifically, mice were injected ip. with 0.1 mg/mouse of human recombinant leptin (R&D Systems, Cat# 398-LP) or human IgG Fc twice a day (9 am and 5 pm) for 7 days.

blood glucose [4] = assay: GTT assay in rats; format: in vivo, rat; conditions: small numbers
Procedure: as §1

blood glucose [5] = assay: IP glucose tolerance test repeated at day-1 and day-2 after one injection (long-term effect); format: in vivo, mouse; conditions: for Blood glucose (X ± SD): one injection 0.2 mg, n = 5
Procedure: as §2, with “measurement. […] The results are summarized in Tables 1-4 below: The above experiment was repeated with GLP1-Fc-leptin (0.2 mg) at day-1 before the glucose tolerance test. A IP glucose tolerance test was conducted twice at day-1 and day-2 respectively.” for “measurement.”

blood glucose [6] = assay: everyday blood glucose level during the 7-day injection period; format: in vivo, mouse; conditions: 0.1 mg daily; for Glucose: one hour after injection, n = 5
Procedure: In the above experiments, during the 7-day period, blood glucose levels of each mouse were measured and recorded on each day one hour after injection of GLP1-Fc-leptin (0.1 mg) or IgG1 Fc fragment everyday in the morning.

## GLP1-Fc-leptin: fusion protein GLP-1-3xGly-IgG1 Fc-leptin (SEQ ID NO:5), expressed in CHO cells
Blood glucose [1]
  effect on blood glucose level in GTT: inhibition
Blood glucose [2]; 0.04 mg ip, 1 hour after IP glucose injection, n = 5
  Blood glucose (X ± SD): 275.8 ± 154.0
Blood glucose [2]; 0.04 mg ip, 2 hour after IP glucose injection, n = 5
  Blood glucose (X ± SD): 98.0 ± 22.7
Blood glucose [2]; 0.04 mg ip, before IP glucose injection, n = 5
  Blood glucose (X ± SD): 98.8 ± 29.2
Blood glucose [2]; 0.1 mg ip, 1 hour after IP glucose injection, n = 4
  Blood glucose (X ± SD): 108.8 ± 44.0
Blood glucose [2]; 0.1 mg ip, 2 hour after IP glucose injection, n = 4
  Blood glucose (X ± SD): 83.0 ± 21.6
Blood glucose [2]; 0.1 mg ip, before IP glucose injection, n = 4
  Blood glucose (X ± SD): 67.3 ± 32.1
Blood glucose [2]; 0.1 mg
  effect on blood glucose levels in ip GTT: significantly inhibited
Blood glucose [2]; 0.2 mg ip, 1 hour after IP glucose injection, n = 5
  Blood glucose (X ± SD): 113.0 ± 16.2
Blood glucose [2]; 0.2 mg ip, 2 hour after IP glucose injection, n = 5
  Blood glucose (X ± SD): 82.0 ± 6.2
Blood glucose [2]; 0.2 mg ip, before IP glucose injection, n = 5
  Blood glucose (X ± SD): 84.4 ± 20.5
Blood glucose [2]; 0.2 mg
  effect on blood glucose levels in ip GTT: significantly inhibited
[3]; 0.1 mg daily for seven days, at day 7, p<0.05
  body weight lost: 11.3%
[3]; 0.1 mg ip daily for seven days, day 1
  Body weight (X ± SD): 24.7 ± 1.3
[3]; 0.1 mg ip daily for seven days, day 4
  Body weight (X ± SD): 23.7 ± 2.2
[3]; 0.1 mg ip daily for seven days, day 7
  Body weight (X ± SD): 21.9 ± 1.4
Blood glucose [4]
  effect on blood glucose level in GTT: inhibition
Blood glucose [5]; Day-1 GTT, 1 hour after IP glucose injection
  Blood glucose (X ± SD): 113.0 ± 16.2
Blood glucose [5]; Day-1 GTT, 2 hour after IP glucose injection
  Blood glucose (X ± SD): 82.0 ± 6.2
Blood glucose [5]; Day-1 GTT, before IP glucose injection
  Blood glucose (X ± SD): 84.4 ± 20.5
Blood glucose [5]; Day-2 GTT, 1 hour after IP glucose injection
  Blood glucose (X ± SD): 106.2 ± 25.7
Blood glucose [5]; Day-2 GTT, 2 hour after IP glucose injection
  Blood glucose (X ± SD): 95.8 ± 21.1
Blood glucose [5]; Day-2 GTT, before IP glucose injection
  Blood glucose (X ± SD): 92.6 ± 25.3
Blood glucose [5]; one injection of 0.2 mg
  duration of inhibition of blood glucose level: at least two
Blood glucose [6]; 7-day period
  everyday blood glucose levels versus IgG1 Fc fragment: lower blood glucose levels
Blood glucose [6]; day 1
  Glucose: 98.0 ± 13.2 mg/dL
Blood glucose [6]; day 2
  Glucose: 119.0 ± 25.8 mg/dL
Blood glucose [6]; day 3
  Glucose: 91.4 ± 44.6 mg/dL
Blood glucose [6]; day 4
  Glucose: 116.0 ± 34.3 mg/dL
Blood glucose [6]; day 5
  Glucose: 95.6 ± 33.9 mg/dL
Blood glucose [6]; day 6
  Glucose: 102.3 ± 25.7 mg/dL
Blood glucose [6]; day 7
  Glucose: 160.4 ± 18.6 mg/dL

## Human leptin: human recombinant leptin (R&D Systems, Cat# 398-LP)
[3]; 0.1 mg/mouse ip twice a day for 7 days
  weight loss relative to GLP1-Fc-Leptin: less than half of the weight loss that GLP1-Fc-Leptin induced
[3]; leptin study, 0.1 mg/mouse ip twice a day for 7 days, day 1
  Body weight (X ± SD): 20.9 ± 2.0
[3]; leptin study, 0.1 mg/mouse ip twice a day for 7 days, day 4
  Body weight (X ± SD): 20.7 ± 2.3
[3]; leptin study, 0.1 mg/mouse ip twice a day for 7 days, day 7
  Body weight (X ± SD): 20.1 ± 2.1
[3]; our animal model, pilot experiments, used alone
  weight loss when used alone: did not induce significant weight loss
